The text below walks through data of US9512178B2, “Neurogenic brain-derived neurotrophic factor peptides” (Research Foundation for Mental Hygiene, Inc., priority 2012, dated 2016).

For data set [1], the system named is E18 primary hippocampal neurons. Kind of data set: Western blots of neuronal markers, densitometry. It is filed as cell-based, mouse. To be noted: 5 days. As to the method: (§1) Following treatment in 6-well plates, cells were washed 2× in glucose buffered saline, GBS (5.4 mM KCl, 138 mM NaCl, 22 mM glucose, and 2 mM Na—KPO pH 7.2), and then lysed by 5 min incubation on ice in 100 or 150 μl of ice-cold RIPA buffer (PBS, 1% w/v NP-40 from Fisher Scientific, 0.1% w/v SDS, and 0.5% w/v sodium desoxycholate) containing 1 mM AEBSF (Gold Biotechnology, St. Louis, Mo., USA), 10 μg/ml aprotinin (Sigma-Aldrich, St. Louis, Mo., USA), and 20 μg/ml of leupeptin and pepstatin (US Biochemicals, Cleveland, Ohio, USA), and phosphatase inhibitors: NaF, Na orthovanadate, (3-glycerophosphate, and microcystein (Sigma-Aldrich, St. Louis, Mo., USA). Extracts were prepared by collecting and pooling a minimum of 2 wells by scraping, and lysates were centrifuged at 20,000×g for 10 min at 4° C. Protein concentration of each cell lysate was determined using the BCA kit (Thermo Scientific, Rockford, Ill., USA). The lysates (7.5-20 μg total protein) were separated on 10% SDS-PAGE gels (except for BDNF where 12% gels were employed) and transferred to 0.45 μm PVDF membrane (Pall, Pensacola, Fla., USA) for probing with antibodies as noted. Blots were blocked for 1 hr at 37° C. in 1×TBST (0.05% Tween 20 in TBS) containing 5% w/v blotting grade dry milk (Bio-rad, Hercules, Calif., USA), incubated in primary antibody overnight in blocking buffer at 4° C., washed 3×10 min in TBST at room temperature, followed by incubation with secondary antibody, i.e., peroxidase-conjugated anti-mouse or anti rabbit IgG (Jackson ImmunoResearch Laboratories, West Grove, Pa., USA) diluted in blocking buffer. Blots were washed 3×10 min in TBST and immunoreactive protein bands were visualized with enhanced chemiluminescence (ECL) reagents (Pierce, Rockford, Ill., USA). The ECL films of the blots were scanned and analyzed using Multi Gauge software version 3.0 (Fujifilm, Tokyo, Japan).
(§2) The following primary antibodies were used: rabbit polyclonal anti-NFM (1:1000; Chemicon/Millipore, Billerica, Mass., USA); mouse monoclonal anti-NeuN, clone A60 (1:500; Millipore, Billerica, Mass., USA); rabbit polyclonal anti-Tuj-1, (3—III-tubulin (Covance; 1:800, Emeryville, Calif., USA); mouse monoclonal SMI 52 to the adult isoforms of MAP-2, MAP2a,b (1:1000; Covance, Emeryvilly, Calif., USA); rabbit polyclonal anti-Synapsin I (1:2000; Stressgen, Farmingdale, N.Y., USA); rabbit monoclonal anti-PSD95 (1:1000; Cell signaling, Danvers, Mass., USA); anti tau 92e (1:10000); mouse monoclonal anti-BDNF (1:1000; Calbiochem, Gibbstown, N.J., USA); rabbit polyclonal anti-TrkB (total) (1:500; Santa Cruz Biotechnology, Santa Cruz, Calif., USA); rabbit polyclonal anti-pTrkB (Tyr706) (1:400; Santa Cruz Biotechnology, Santa Cruz, Calif., USA), TrkC (1:1000; Cruz Biotechnology, Santa Cruz, Calif., USA); and pTrkY490 (1:500; Upstate USA Inc., Charlottesville, Va., USA). For loading control, the blots were developed with rabbit polyclonal antibody to GAPDH (1:2000; Santa Cruz Biotechnology, Santa Cruz, Calif., USA).
To biochemically study the effect of BDNF peptides in inducing expression of neuronal markers, protein samples were recovered from cells treated with peptides B-5, B-4, B-3, or vehicle for five days. As a positive control, protein samples were collected from cells treated with BDNF at 20 ng/ml (0.79 nM) or 100 ng/ml (3.95 nM) (FIG. 3D, E). Western blots of the cell lysates were developed with antibodies to Synapsin I (presynaptic marker), PSD95 (postsynaptic marker), NeuN (late neuronal marker), NFM (early neuronal marker), MAP2 (dendritic marker), 0-IIItubulin (early neuronal marker), and tau 92e (axonal marker).
(Immunoblotting shows a protein as a band on a membrane.)

The conditions of data set [2]: phase III, amyotrophic lateral sclerosis, daily subcutaneous administration; cited from earlier work.
Data set [3] has as its system primary E18 hippocampal cells. Kind of data set: Rescue of H2O2-induced neurotoxicity (LDH assay). It counts as cell-based, mouse. To be noted: then treatment 24 h. As to the method: Evaluation of cell death and cell viability was performed using the LDH kit (Promega, Madison Wis., USA), following manufactures instructions. Percentages of cell death and cell viability were plotted separately.
In order to evaluate the potential neuroprotective effect of BDNF peptides, the primary E18 hippocampal cells were challenged with 0, 60, 80 and 100 μM H2O2 for 6 hours, and then cells were washed with culture medium and fresh culture medium was added containing the peptides B-5 or B-3 or BDNF or BDNF plus B-3 (see FIGS. 4A and 4B). After 24 hours, the cell viability was assayed by the LDH method.

The target of the next data set is T1, TrkC (Homo sapiens, UniProt Q16288).
T1 construct: expressed in transfected cells; host or cells: NIH-3T3 fibroblasts
T1 sequence (Q16288 32-839, species assumed): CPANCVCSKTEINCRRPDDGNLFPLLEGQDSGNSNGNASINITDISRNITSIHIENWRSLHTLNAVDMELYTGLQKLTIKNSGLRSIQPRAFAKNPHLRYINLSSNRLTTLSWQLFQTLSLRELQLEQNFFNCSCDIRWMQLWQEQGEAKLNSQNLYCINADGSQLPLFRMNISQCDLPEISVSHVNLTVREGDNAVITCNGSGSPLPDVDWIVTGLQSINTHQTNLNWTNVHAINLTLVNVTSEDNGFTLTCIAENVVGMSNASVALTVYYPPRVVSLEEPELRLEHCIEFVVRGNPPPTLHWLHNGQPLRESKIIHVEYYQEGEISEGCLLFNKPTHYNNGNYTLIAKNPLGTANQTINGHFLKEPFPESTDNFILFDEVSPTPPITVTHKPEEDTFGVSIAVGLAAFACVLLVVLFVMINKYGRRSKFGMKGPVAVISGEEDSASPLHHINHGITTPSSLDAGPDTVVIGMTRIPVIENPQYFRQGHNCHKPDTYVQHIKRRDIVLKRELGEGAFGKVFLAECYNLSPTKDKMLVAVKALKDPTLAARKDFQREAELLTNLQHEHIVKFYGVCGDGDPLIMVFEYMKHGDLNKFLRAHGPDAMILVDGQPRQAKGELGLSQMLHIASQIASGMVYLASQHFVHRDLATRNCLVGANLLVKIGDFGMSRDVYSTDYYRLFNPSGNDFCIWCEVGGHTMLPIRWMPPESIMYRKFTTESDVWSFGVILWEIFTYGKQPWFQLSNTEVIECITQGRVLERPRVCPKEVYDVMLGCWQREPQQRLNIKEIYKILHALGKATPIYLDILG
Kind of data set: Trk phosphorylation and TrkC expression in TrkC stably-expressing NIH-3T3 cells. It is filed as cell-based. To be noted: 20 ng/mL.

A further data set has as its target T2, TrkB receptor (Mus musculus, UniProt P15209).
T2 construct: endogenous in cells; host or cells: primary hippocampal neurons from embryonic day 18 C57BL/6 mice
Kind of data set: TrkB phosphorylation (Tyr 706) and TrkB level in primary E18 hippocampal cells, with or without K252a. It is filed as cell-based. As to conditions: 20 ng/ml. As to the method:
Peptides were dissolved in water in serial dilutions of 10 mM, 1 mM, 100 μM and 10 μM from which the necessary amount was added directly to the culture medium to a final concentration of 0.05 μM, 1 μM, or 10 μM. The BDNF (Peprotech, NJ, USA) was used as a reference in concentrations of 20 ng/ml (0.79 nM) and 100 ng/ml (3.95 nM). Cycloheximide (CHX) (Sigma-Aldrich, St Louis, Mo., USA) was used for blocking protein synthesis. CHX original stock was 100 mg/ml (355.4 mM) in DMSO; from a second stock of 35.54 mM in DMSO, the dilutions were made to the final concentrations of 100 μM. The K252a (CALBIOCHEM/EMD) was used to inhibit the TrkB Receptor. From a stock of 100 μM in DMSO, K252a was diluted to a final working concentration of 200 nM. The E18 primary hippocampal cells were pre-treated with CHX or K252a 1 h prior to the addition of the peptides or BDNF and a time course of these treatments for 15 min, 60 min and 2 days was studied.
as §1
as §2, with “Calif., USA). […]” for “Calif., USA).”

The conditions of data set [4]: in vivo; cited from earlier work.
For data set [5] the following is noted: direct administration into the CNS; cited from earlier work.

T2 sequence (P15209 32-821): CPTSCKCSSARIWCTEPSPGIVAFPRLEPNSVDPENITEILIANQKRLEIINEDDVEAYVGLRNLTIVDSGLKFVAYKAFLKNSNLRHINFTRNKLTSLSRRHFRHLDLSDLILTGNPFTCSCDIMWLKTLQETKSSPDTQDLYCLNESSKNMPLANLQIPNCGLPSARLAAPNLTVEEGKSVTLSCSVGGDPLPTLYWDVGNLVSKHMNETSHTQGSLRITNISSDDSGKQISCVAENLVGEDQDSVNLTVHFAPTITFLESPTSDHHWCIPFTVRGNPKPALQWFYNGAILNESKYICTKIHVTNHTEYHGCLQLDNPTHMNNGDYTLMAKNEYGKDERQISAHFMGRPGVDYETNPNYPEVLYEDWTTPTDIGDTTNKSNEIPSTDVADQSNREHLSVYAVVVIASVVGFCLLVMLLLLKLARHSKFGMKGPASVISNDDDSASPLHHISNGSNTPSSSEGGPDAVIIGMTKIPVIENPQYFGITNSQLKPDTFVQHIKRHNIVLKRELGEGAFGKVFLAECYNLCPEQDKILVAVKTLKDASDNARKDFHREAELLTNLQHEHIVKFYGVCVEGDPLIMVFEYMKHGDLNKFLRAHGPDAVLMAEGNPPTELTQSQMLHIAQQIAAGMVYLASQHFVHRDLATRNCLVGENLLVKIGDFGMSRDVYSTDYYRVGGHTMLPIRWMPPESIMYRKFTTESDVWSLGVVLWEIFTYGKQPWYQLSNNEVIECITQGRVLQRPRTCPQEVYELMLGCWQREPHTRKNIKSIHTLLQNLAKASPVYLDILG

For the molecule “BDNF: Brain derived neurotrophic factor (Peprotech), used as a reference at 20 ng/ml and 100 ng/ml”, the “NFM expression (Western blot)” value in data set [1] (20 ng/ml) and in data set [1] (100 ng/ml) was “increased NFM expression in a similar way” in each case. Also, the “expression of PSD95 (Western blot)” value in data set [1] (20 ng/ml) and in data set [1] (100 ng/ml) was “increase” throughout. In addition, the “level of tau (92e antibody, Western blot)” value in data set [1] is “Neither BNDF nor peptides B-3, B-4 or B-5 had any significant effect”. In data set [2], the clinical benefit result was “no clinical benefit”. Moreover, the “cell death (LDH)” value in data set [3] (0 μM H2O2 6 h) is listed as “not statistically significant”; in data set [3] (60 μM H2O2 6 h) it was “some reduction in cell death”; in data set [3] (80 μM H2O2 6 h), “not statistically significant”; in data set [3] (100 μM H2O2 6 h) it was “not statistically significant”. In addition, the “cell viability (LDH)” value in data set [3] (0 μM H2O2 6 h) and in data set [3] (60 μM H2O2 6 h) was “increased cell viability significantly” each time.

B1: BDNF: Brain derived neurotrophic factor (Peprotech), used as a reference at 20 ng/ml and 100 ng/ml (protein, UniProt P23560 19-247, looked up)
Neurotrophic factor BDNF …: APMKEANIRGQGGLAYPGVRTHGTLESVNGPKAGSRGLTSLADTFEHVIEELLDEDQKVRPNEENNKDADLYTSRVMLSSQVPLEPPLLFLLEEYKNYLDAANMSMRVRRHSDPARRGELSVCDSISEWVTAADKKTAVDMSGGTVTVLEKVPVSKGQLKQYFYETKCNPMGYTKEGCRGIDKRHWNSQCRTTQSYVRALTMDSKKRIGWRFIRIDTSCVCTLTIKRGR
For the molecule B1, in the data set with TrkC, the “activation of TrkC receptor” value is “neither the peptides nor BDNF were able to activate this receptor”; the “expression of TrkC” value was “neither BDNF (20 ng/mL) nor peptides B-5 (1 μM) and B-3 (1 μM) were able to modify the expression of TrkC”. In the data set with TrkB receptor (5 min, without K252a), the “increase in the phosphorylation of the TrkB receptor” value is “significant”. In addition, the “activation of TrkB (pTrkB Tyr 706 normalized to total TrkB)” value with TrkB receptor (1 h) is “strong and significant activation”. In data set [4], the “blood brain barrier (BBB) and intraparenchymal penetrations” value is “poor”; the plasma half-life entry was “less than 1 min”. In addition, the undesirable effects result in data set [5] is “weight loss, dysaesthesias (impairment of sensation), and in some cases, pain”.
